# According to ChEMBL document CHEMBL1134916, “Synthesis and evaluation of 7-substituted-3-cyclobutylamino-4H-1,2,4-benzothiadiazine-1,1-dioxide derivatives as K(ATP) channel agonists” (Bioorg Med Chem Lett, 2002):
# Legend:
# [1] = biological target: T1, Sulfonylurea receptor 1, Kir6.2 (Homo sapiens, UniProt Q09428+Q14654); assay: Inhibition of Beta-cell KATP channel; type: functional
# [2] = biological target: Sulfonylurea receptor 1, Kir6.2 (Homo sapiens) (UniProt Q14654+Q09428); assay: Percentage of maximal agonistic response of Beta-cell KATP channel as compared to diazoxide (50 uM); type: functional
# [3] = biological target: T1, Sulfonylurea receptor 1, Kir6.2; assay: Negative log EC50 for Beta-cell KATP channel; type: functional
# [4] = Acid dissociation constant was determined; type: ADME
# T1 sequence (Q14654 whole entry): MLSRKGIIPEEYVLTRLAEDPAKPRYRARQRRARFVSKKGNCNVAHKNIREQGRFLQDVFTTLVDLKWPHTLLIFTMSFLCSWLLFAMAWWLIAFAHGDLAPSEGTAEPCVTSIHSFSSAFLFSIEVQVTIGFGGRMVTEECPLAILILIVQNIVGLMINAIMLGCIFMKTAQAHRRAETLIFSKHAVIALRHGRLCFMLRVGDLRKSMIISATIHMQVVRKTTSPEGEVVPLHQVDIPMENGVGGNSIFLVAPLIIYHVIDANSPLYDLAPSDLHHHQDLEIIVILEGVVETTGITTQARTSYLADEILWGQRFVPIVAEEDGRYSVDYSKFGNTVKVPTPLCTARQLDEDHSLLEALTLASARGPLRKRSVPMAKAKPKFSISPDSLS
# T1 sequence (Q09428 whole entry): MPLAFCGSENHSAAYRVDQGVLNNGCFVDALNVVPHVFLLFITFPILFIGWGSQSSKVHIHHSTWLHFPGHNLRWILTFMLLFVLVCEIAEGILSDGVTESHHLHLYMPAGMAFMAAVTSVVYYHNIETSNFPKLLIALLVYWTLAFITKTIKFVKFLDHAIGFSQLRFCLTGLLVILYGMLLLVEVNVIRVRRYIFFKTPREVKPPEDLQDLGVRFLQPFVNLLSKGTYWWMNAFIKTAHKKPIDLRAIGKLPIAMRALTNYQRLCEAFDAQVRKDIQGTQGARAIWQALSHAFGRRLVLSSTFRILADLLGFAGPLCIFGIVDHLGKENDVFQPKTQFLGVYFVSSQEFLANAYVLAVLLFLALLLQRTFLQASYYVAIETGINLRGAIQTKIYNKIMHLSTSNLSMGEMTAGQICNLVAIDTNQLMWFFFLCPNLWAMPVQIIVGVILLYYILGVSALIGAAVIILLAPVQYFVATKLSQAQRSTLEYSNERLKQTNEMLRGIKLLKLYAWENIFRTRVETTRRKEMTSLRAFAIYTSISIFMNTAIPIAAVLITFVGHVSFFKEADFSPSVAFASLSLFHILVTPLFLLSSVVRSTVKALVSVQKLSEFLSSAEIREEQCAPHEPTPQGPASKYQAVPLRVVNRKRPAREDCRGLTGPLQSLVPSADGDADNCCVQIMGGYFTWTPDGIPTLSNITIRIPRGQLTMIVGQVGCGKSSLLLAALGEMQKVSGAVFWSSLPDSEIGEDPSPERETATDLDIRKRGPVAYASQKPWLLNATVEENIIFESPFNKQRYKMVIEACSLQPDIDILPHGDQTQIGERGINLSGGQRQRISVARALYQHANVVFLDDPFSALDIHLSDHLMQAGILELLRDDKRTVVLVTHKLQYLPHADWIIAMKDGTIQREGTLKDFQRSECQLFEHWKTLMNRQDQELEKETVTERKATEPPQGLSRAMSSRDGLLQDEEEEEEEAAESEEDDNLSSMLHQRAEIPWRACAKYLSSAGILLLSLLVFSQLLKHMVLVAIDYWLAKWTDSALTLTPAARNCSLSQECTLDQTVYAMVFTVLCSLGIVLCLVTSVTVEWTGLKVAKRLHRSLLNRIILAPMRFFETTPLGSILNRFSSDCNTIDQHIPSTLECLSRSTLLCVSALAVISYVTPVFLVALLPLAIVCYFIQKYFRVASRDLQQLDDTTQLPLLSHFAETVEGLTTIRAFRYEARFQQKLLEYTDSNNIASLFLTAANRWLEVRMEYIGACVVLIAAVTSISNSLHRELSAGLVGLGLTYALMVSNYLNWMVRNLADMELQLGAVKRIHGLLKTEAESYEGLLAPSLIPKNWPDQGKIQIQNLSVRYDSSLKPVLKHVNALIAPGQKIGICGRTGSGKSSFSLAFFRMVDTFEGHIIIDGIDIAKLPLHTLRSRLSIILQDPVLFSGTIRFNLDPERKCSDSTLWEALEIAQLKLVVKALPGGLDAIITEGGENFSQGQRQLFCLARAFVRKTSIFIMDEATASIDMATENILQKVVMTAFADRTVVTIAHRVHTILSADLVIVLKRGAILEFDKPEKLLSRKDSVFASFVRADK
Structure (SMILES),EC50 [1] [nM],Max [2] [%],EC50 [3] [nM],pKa [4]
O=S1(=O)N=C(NC2CCC2)Nc2ccc(Cl)cc21,196,137,200,9.36
CC1=Nc2ccc(Cl)cc2S(=O)(=O)N1,–,100,–,–
O=[N+]([O-])c1ccc2c(c1)S(=O)(=O)NC(NC1CCC1)=N2,530,30.9,–,7.89
O=S1(=O)N=C(NC2CCC2)Nc2ccccc21,1960,109,2000,–
CC1=NS(=O)(=O)c2cc(Cl)ccc2N1 [DIAZOXIDE],–,–,–,8.62

# More lines, now with the values ahead:
EC50 [1] [nM],Max [2] [%],EC50 [3] [nM],pKa [4],Structure (SMILES)
3870,122,3980,–,COc1ccc2c(c1)S(=O)(=O)NC(NC1CCC1)=N2
31000,96.9,31600,–,Nc1ccc2c(c1)S(=O)(=O)NC(NC1CCC1)=N2
356,136,398,9.57,O=S1(=O)NC(NC2CCC2)=Nc2ccc(F)cc21
